The nature of data set [1]: Lipophilicity, log D of the compound at pH 7.4. The format is physicochemical. The conditions noted are these: buffer.
The nature of data set [2]: Drug uptake in iv dosed baboon kidney after 90 mins by PET analysis. The data set is classed as ADME, organism-based. To be noted: papio anubis, in vivo.
Data set [3] can be described thus: Drug uptake in iv dosed baboon heart after 90 mins by PET analysis in presence of SAHA. The data set is classed as ADME, organism-based. To be noted: papio anubis, in vivo.
A short description of data set [4]: Drug uptake in iv dosed baboon liver after 90 mins by PET analysis. The format is ADME, organism-based. To be noted: papio anubis, in vivo.
Data set [5] deals with Brain. Put plainly: Drug uptake in iv dosed baboon brain after 90 mins by PET analysis. The format is ADME, organism-based. To be noted: papio anubis, in vivo.
Data set [6] is described as follows: Protein binding in plasma (unknown origin). The format is ADME, cell-free. The conditions noted are these: unidentified, read-out: PPB (converted).
The nature of data set [7]: Drug uptake in iv dosed baboon cerebellum after 90 mins by PET analysis. The data set is classed as ADME, organism-based. The conditions noted are these: papio anubis, in vivo.
Data set [8] deals with Brain. Put plainly: Drug uptake in iv dosed baboon whole brain after 90 mins by PET analysis. The data set is classed as ADME, organism-based. The conditions noted are these: papio anubis, in vivo.
A short description of data set [9]: Drug uptake in iv dosed baboon putamen after 90 mins by PET analysis. The format is ADME, organism-based. To be noted: papio anubis, in vivo.
A short description of data set [10]: Drug uptake in iv dosed baboon kidney after 90 mins by PET analysis in presence of SAHA. The data set is classed as ADME, organism-based. To be noted: papio anubis, in vivo.
Data set [11] can be described thus: Drug uptake in iv dosed baboon heart after 90 mins by PET analysis. The format is ADME, organism-based. The conditions noted are these: papio anubis, in vivo.
The nature of data set [12]: Drug uptake in iv dosed baboon liver after 90 mins by PET analysis in presence of SAHA. The data set is classed as ADME, organism-based. To be noted: papio anubis, in vivo.
Data set [13] in a line: Drug uptake in iv dosed baboon caudate after 90 mins by PET analysis. The data set is classed as ADME, organism-based. To be noted: papio anubis, in vivo.

From ChEMBL document CHEMBL3091385, “Radionuclide labeling and evaluation of candidate radioligands for PET imaging of histone deacetylase in the brain” (Bioorg Med Chem Lett, 2013) come the findings set out here.

In turn, `O=C(C[18F])NCCCCCC(=O)Nc1ccccc1` gave a logD in [1] of 1.39.
In the case of `Nc1ccccc1NC(=O)c1ccc(CN[11C](=O)OCc2cccnc2)cc1`, the logD in [1] (read-out: logD) stood at 1.79.
Consider `[11CH3]Oc1ccc(C(=O)CCCCCCC(=O)NO)cc1`, for which the Drug uptake entry in data set [2], in data set [3], in [4], in data set [5], in [7] and in [8] was “Active” throughout. The Drug uptake result in [9], in [10], in data set [11], in data set [12] and in data set [13] was “Active” each time. In data set [6], the fraction unbound was 0.085. For the same compound, in data set [1] (read-out: logD), the logD worked out at 0.5.
